Earlier results on one compound are cited in publication PMC11866498 (Cell Reports Medicine, 2025).

The conditions of data set [1]: ref Previous studies.
For data set [2] the following is noted: ref Previous studies. The source holds these as a separate data set.

Turning to `C[C@H]1COC2=C1C(=O)C(=O)c1c2ccc2c1CCCC2(C)C` [CTS, cryptotanshinone], the water solubility result in data set [1] is given as “inadequate”. In addition, in data set [2], the in vivo stability entry is listed as “inadequate”.
